According to the supplement of paper PMC10307832:

Legend:
Experiment in all cases: relative viability (nuclei count vs DMSO), 5 days (fraction); higher = more cells survive
MK-8033 + Pemetrexed = compound: Cn1cc(-c2cnc3ccc4ccc(CS(=O)(=O)NCc5ccccn5)cc4c(=O)c3c2)cn1 [MK-8033] + Nc1nc2[nH]cc(CCc3ccc(C(=O)N[C@@H](CCC(=O)O)C(=O)O)cc3)c2c(=O)[nH]1 [Pemetrexed] (partner 0.2 µM)
Method in brief: (§1)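 For relative viability, nuclei counts in treated wells were divided by those in vehicle wells. Lung cancer cell lines had been pin-tool dosed in 1536-well plates the day after seeding and cultured for 5 days, then fixed and stained in one step (final 0.05% Triton X-100, 1% formaldehyde, 1 ug/ml Hoechst) and imaged at 4×. Doses were one drug alone or a fixed anchor-drug dose plus five library-drug doses (not always all listed) in √10 steps, and values are duplicate-plate medians.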

MK-8033 + AZD7762 = compound: Cn1cc(-c2cnc3ccc4ccc(CS(=O)(=O)NCc5ccccn5)cc4c(=O)c3c2)cn1 [MK-8033] + NC(=O)Nc1cc(-c2cccc(F)c2)sc1C(=O)N[C@H]1CCCNC1 [AZD7762] (partner 0.2 µM)
Method in brief: as §1

MK-8033 + OSI-027 = compound: Cn1cc(-c2cnc3ccc4ccc(CS(=O)(=O)NCc5ccccn5)cc4c(=O)c3c2)cn1 [MK-8033] + COc1cccc2cc(-c3nc([C@H]4CC[C@H](C(=O)O)CC4)n4ncnc(N)c34)[nH]c12 [OSI-027] (partner 0.5 µM)
Method in brief: as §1

Irinotecan + Linsitinib = compound: CCc1c2c(nc3ccc(OC(=O)N4CCC(N5CCCCC5)CC4)cc13)-c1cc3c(c(=O)n1C2)COC(=O)[C@]3(O)CC [Irinotecan] + C[C@]1(O)C[C@@H](c2nc(-c3ccc4ccc(-c5ccccc5)nc4c3)c3c(N)nccn32)C1 [Linsitinib] (partner 1 µM)
Method in brief: as §1

| Cell Line | relative viability (MK-8033 + Pemetrexed; first compound 0.02 µM) | relative viability (MK-8033 + Pemetrexed; first compound 0.06325 µM) | relative viability (MK-8033 + Pemetrexed; first compound 0.2 µM) | relative viability (MK-8033 + Pemetrexed; first compound 0.6325 µM) | relative viability (MK-8033 + Pemetrexed; first compound 2 µM) | relative viability (MK-8033 + AZD7762; first compound 0.02 µM) | relative viability (MK-8033 + AZD7762; first compound 0.06325 µM) | relative viability (MK-8033 + AZD7762; first compound 0.2 µM) | relative viability (MK-8033 + AZD7762; first compound 0.6325 µM) | relative viability (MK-8033 + AZD7762; first compound 2 µM) | relative viability (MK-8033 + OSI-027; first compound 0.02 µM) | relative viability (MK-8033 + OSI-027; first compound 0.06325 µM) | relative viability (MK-8033 + OSI-027; first compound 0.2 µM) | relative viability (MK-8033 + OSI-027; first compound 0.6325 µM) | relative viability (MK-8033 + OSI-027; first compound 2 µM) | relative viability (Irinotecan + Linsitinib; first compound 0.6325 µM) | relative viability (Irinotecan + Linsitinib; first compound 2 µM) | relative viability (Irinotecan + Linsitinib; first compound 6.325 µM) | relative viability (Irinotecan + Linsitinib; first compound 20 µM) |
| --- | --- | --- | --- | --- | --- | --- | --- | --- | --- | --- | --- | --- | --- | --- | --- | --- | --- | --- | --- |
| NCI-H522 | 1.07 | 0.967 | 0.941 | 0.891 | 1.04 | 0.831 | 0.748 | 0.809 | 0.881 | 0.97 | 0.806 | 0.627 | 0.661 | 0.729 | 0.722 |  |  |  |  |
| NCI-H358 | 0.165 | 0.181 | 0.158 | 0.167 | 0.164 | 0.541 | 0.347 | 0.431 | 0.428 | 0.458 | 0.799 | 0.64 | 0.613 | 0.812 | 0.58 | 0.681 | 0.671 | 0.36 | 0.251 |
| NCI-H1755 | 0.481 | 0.394 | 0.383 | 0.336 | 0.375 | 0.487 | 0.35 | 0.384 | 0.401 | 0.452 | 0.625 | 0.676 | 0.681 | 0.717 | 0.822 | 0.927 | 0.396 | 0.303 | 0.366 |
| LCLC-103H | 0.504 | 0.446 | 0.457 | 0.482 | 0.458 | 0.756 | 0.712 | 0.788 | 0.741 | 0.82 | 0.412 | 0.469 | 0.437 | 0.448 | 0.509 | 0.91 | 0.352 | 0.362 | 0.411 |
| HOP-62 | 0.358 | 0.415 | 0.326 | 0.3 | 0.32 | 0.67 | 0.722 | 0.464 | 0.471 | 0.578 | 0.83 | 0.821 | 0.756 | 0.84 | 0.896 | 0.146 | 0.158 | 0.138 | 0.203 |
| HCC-78 | 0.936 | 0.923 | 0.928 | 0.587 | 0.851 | 0.712 | 0.517 | 0.719 | 0.557 | 0.566 | 0.352 |  | 0.329 | 0.34 | 0.398 | 0.577 | 0.418 | 0.204 | 0.184 |
| NCI-H650 | 0.982 | 0.955 | 0.863 | 0.933 | 0.83 | 0.947 | 0.997 | 0.982 | 0.945 | 0.985 | 0.539 | 0.527 | 0.491 | 0.503 | 0.554 | 0.701 | 0.562 | 0.237 | 0.303 |
| NCI-H1563 | 0.736 | 0.695 | 0.738 | 0.69 | 0.794 |  |  |  |  |  | 0.789 | 0.8 | 0.727 | 0.807 | 0.724 | 1.09 | 1.27 | 0.969 | 0.718 |
| ABC-1 |  |  |  |  |  | 0.86 | 0.709 | 0.475 | 0.874 | 1.06 | 0.417 | 0.339 | 0.415 | 0.457 | 0.506 |  | 0.676 | 0.344 | 0.238 |
| Calu-6 |  |  |  |  |  |  |  |  |  |  |  |  |  |  |  | 0.714 | 0.523 | 0.2 | 0.132 |
| EBC-1 |  |  |  |  |  |  |  |  |  |  |  |  |  |  |  | 0.675 | 0.405 | 0.211 | 0.177 |
| NCI-H520 | 0.625 | 0.697 | 0.607 | 0.652 | 0.602 |  |  |  |  |  | 0.256 | 0.287 | 0.302 | 0.25 | 0.222 | 0.821 | 0.737 | 0.302 | 0.212 |
| NCI-H322M | 0.63 | 0.59 | 0.56 | 0.599 | 0.621 | 0.535 | 0.47 | 0.518 | 0.609 | 0.697 | 0.568 | 0.442 | 0.598 | 0.604 | 0.524 | 0.551 | 0.467 | 0.366 | 0.414 |
| 201T | 0.306 | 0.348 | 0.301 | 0.291 | 0.312 | 0.7 | 0.481 | 0.607 | 0.683 | 0.618 | 0.767 | 0.703 | 0.683 | 0.675 | 0.817 |  | 0.85 | 0.445 | 0.397 |
| RERF-LC-KJ | 0.459 | 0.467 | 0.501 | 0.462 | 0.471 | 0.984 | 0.84 | 1.01 | 0.981 | 0.942 | 0.554 | 0.535 | 0.531 | 0.521 | 0.509 | 0.807 | 0.647 | 0.379 | 0.34 |
| A549 |  |  |  |  |  |  |  |  |  |  |  |  |  |  |  | 0.374 | 0.636 | 0.211 | 0.0965 |
| NCI-H1648 | 0.733 |  | 0.538 | 0.81 | 0.835 | 0.6 |  | 0.533 | 0.702 | 0.769 |  | 0.261 | 0.261 |  | 0.25 |  |  |  |  |
| NCI-H1623 |  |  |  |  |  |  |  |  |  |  | 0.411 | 0.409 | 0.495 | 0.442 | 0.477 |  |  |  |  |
| NCI-H1651 | 0.633 | 0.561 | 0.56 | 0.685 | 0.582 | 0.551 | 0.397 | 0.482 | 0.479 | 0.564 | 0.735 | 0.541 | 0.757 | 0.646 | 0.699 | 0.803 | 0.542 | 0.203 | 0.159 |
| NCI-H2405 | 1.04 | 1.01 | 0.963 | 1.06 | 1.11 | 0.807 | 0.734 | 0.638 | 0.701 | 0.742 | 0.595 | 0.538 | 0.594 | 0.604 | 0.604 |  | 0.763 | 0.294 | 0.18 |
| NCI-H727 |  |  |  |  |  | 0.697 | 0.614 | 0.519 | 0.758 | 0.574 | 0.667 |  | 0.652 | 0.583 | 0.551 | 0.157 | 0.334 | 0.284 | 0.391 |
| EMC-BAC-2 | 0.453 | 0.406 | 0.46 | 0.419 | 0.439 | 1.12 | 0.979 | 1 | 1.01 | 1.09 | 0.384 | 0.408 | 0.395 | 0.375 | 0.386 | 0.56 | 0.267 | 0.2 | 0.242 |
